Test results reported in patent US6730666B1, “Pharmaceutical compositions comprising porphyrins and some novel porphyrin derivatives” (Yeda Research and Development Co. Ltd., priority 1998, dated 2004).
pIC50: −log10 of the molar value.

How the values were obtained:
PLC-γ = PLC-γ phosphorylation in FGFR-3 expressing cells induced by FGF-9; assay type: cell-based; conditions: FIG. 15A
Experimental: (viii) Immunoblots. To the overnight serum-starved cells (2 plates for each treatment), 500 μl of F12^++ medium were added which either contained or not the respective porphyrin or corrole compound in a final concentration of […] for 40 min at 37° C. One of the two plates of each treatment was then stimulated with FGF9 (+) (75 ng/ml) and to the second plate only medium (−) was added for 10 min at 37° C. The cells were washed twice with PBS. 600 μl of SBN lysis buffer containing 1% NP-40 and 1 mM vanadate were added and left on ice for 10 min. The plates were then scraped and left on ice for additional 10 min. The lysate was span down in Eppendorf centrifuge for 15 min, 15000 rpm at 4° C. The supernatants were kept and Bradford protein determinant on assay was performed in the samples. 500 μg protein from each sample were taken for immunoprecipitation with 7.5 μl antibody against FGFR-3, 4 hr at 4° C.
These findings support the notion that the porphyrins can serve for treating FGFR-3 related growth disorders. ERK1 and ERK2 are two isoforms of ERK.

FGFR-3 = target: T1, FGFR-3 (Homo sapiens, UniProt P22607); assay: Binding of 125I-FGF9 to immobilized soluble FGFR-3 (FR-3-AP); conditions: FIG. 11
T1 construct: soluble FGFR-3 ectodomain alkaline phosphatase fusion protein (FR-3-AP); made in house; host or cells: NIH 3T3 cells (conditioned medium)
T1 sequence (P22607 23-375 limits assumed): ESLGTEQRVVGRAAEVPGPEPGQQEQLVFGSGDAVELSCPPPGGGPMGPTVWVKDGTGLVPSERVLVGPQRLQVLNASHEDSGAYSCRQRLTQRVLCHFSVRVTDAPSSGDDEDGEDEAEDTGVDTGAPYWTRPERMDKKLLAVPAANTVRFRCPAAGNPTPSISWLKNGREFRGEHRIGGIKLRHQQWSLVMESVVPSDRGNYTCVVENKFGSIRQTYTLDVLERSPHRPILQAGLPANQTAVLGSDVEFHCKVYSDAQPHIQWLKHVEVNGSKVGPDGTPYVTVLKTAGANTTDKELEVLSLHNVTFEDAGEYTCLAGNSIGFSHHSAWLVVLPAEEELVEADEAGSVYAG
Experimental: Incubations were performed in the presence of 100 ng/ml heparin and increasing concentrations of porphyrins. […] Results represent the mean value in one of at least two independent experiments.
(iii) Binding of ^125I-bFGF or ^125I-FGF9 to s luble FGFR-1 or FGFR-3. Conditioned medium from NIH 3T3 cells secreting soluble FRAP or FGFR-3 FR-3-AP, was incubated for 45 min at room temperature with rabbit anti-human placental AP antibodies (generated as described in Ornitz et al, 1991) prebound to agarose-protein A beads Pierce). The FGFR-1 or FGFR-3-coupled beads were washed three times with 1 ml HNTG and incubated with 2 ng/ml of ^125I-FGF, 1 μg/ml of heparin and porphyrin/corrole compound at different concentrations for 1 h at room temperature. High affinity-bound ^125I-bFGF was determined by counting of the samples in a γ-counter.
Thus, the compounds were tested for their capacity to inhibit binding of a soluble FGFR-3 ectodomain alkaline phosphatase fusion protein (FR-3-AP) to FGF-9, utilizing a cell free system, similar to the one described for FGFR-1 in Example 1 above, and measuring the binding of radiolabeled ^125I-FGF-9 to soluble FGFR-3.

[1] = target: T2, flt-1 VEGF receptor AP fusion protein (Homo sapiens, UniProt P17948); assay: Binding of soluble VEGF receptor flt-1-AP fusion protein to immobilized VEGF; conditions: FIG. 10B; read-out: IC50, inhibition of flt-1-AP binding to immobilized VEGF
T2 construct: soluble VEGF receptor flt-1-AP fusion protein; made in house
T2 sequence (P17948 27-758 limits assumed): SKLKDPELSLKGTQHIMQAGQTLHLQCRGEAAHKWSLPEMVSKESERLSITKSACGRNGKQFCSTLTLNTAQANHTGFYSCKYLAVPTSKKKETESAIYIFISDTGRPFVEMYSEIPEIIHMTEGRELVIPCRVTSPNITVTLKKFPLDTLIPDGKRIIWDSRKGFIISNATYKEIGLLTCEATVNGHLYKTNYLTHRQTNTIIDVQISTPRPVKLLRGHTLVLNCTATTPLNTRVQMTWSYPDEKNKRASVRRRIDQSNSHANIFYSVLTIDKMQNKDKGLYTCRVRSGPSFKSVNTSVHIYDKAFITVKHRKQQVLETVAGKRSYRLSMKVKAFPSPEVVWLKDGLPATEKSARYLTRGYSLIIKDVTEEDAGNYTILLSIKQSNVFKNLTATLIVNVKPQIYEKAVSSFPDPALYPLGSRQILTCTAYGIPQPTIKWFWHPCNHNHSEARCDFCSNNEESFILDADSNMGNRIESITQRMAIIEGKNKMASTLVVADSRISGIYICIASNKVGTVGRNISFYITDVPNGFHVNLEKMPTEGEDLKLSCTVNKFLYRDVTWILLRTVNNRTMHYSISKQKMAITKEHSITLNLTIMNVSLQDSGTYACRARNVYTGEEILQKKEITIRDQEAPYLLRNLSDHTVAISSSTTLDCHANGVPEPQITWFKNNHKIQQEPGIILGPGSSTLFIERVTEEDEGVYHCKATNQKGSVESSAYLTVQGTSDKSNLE
Text: ix) Binding of soluble VEGF receptor alkaline phosphatase fusion protein to immobilized VEGF. The flt-1 VEGF receptor was expressed as a fusion protein with AP as previously described (Roeckl et al, 1998) and tested for its binding capacity to immobilized VEGF as described in method (ii) above for the FGF receptor.

VEGF receptor KDR = target: T3, VEGF receptor KDR (Homo sapiens, UniProt P35968); assay: Binding of 125I-VEGF to endothelial cells transfected with VEGF receptor KDR; parameters: species or system bovine; conditions: FIG. 10A
T3 construct: expressed in transfected cells; host or cells: bovine aortic endothelial cells
T3 sequence (P35968 20-1356): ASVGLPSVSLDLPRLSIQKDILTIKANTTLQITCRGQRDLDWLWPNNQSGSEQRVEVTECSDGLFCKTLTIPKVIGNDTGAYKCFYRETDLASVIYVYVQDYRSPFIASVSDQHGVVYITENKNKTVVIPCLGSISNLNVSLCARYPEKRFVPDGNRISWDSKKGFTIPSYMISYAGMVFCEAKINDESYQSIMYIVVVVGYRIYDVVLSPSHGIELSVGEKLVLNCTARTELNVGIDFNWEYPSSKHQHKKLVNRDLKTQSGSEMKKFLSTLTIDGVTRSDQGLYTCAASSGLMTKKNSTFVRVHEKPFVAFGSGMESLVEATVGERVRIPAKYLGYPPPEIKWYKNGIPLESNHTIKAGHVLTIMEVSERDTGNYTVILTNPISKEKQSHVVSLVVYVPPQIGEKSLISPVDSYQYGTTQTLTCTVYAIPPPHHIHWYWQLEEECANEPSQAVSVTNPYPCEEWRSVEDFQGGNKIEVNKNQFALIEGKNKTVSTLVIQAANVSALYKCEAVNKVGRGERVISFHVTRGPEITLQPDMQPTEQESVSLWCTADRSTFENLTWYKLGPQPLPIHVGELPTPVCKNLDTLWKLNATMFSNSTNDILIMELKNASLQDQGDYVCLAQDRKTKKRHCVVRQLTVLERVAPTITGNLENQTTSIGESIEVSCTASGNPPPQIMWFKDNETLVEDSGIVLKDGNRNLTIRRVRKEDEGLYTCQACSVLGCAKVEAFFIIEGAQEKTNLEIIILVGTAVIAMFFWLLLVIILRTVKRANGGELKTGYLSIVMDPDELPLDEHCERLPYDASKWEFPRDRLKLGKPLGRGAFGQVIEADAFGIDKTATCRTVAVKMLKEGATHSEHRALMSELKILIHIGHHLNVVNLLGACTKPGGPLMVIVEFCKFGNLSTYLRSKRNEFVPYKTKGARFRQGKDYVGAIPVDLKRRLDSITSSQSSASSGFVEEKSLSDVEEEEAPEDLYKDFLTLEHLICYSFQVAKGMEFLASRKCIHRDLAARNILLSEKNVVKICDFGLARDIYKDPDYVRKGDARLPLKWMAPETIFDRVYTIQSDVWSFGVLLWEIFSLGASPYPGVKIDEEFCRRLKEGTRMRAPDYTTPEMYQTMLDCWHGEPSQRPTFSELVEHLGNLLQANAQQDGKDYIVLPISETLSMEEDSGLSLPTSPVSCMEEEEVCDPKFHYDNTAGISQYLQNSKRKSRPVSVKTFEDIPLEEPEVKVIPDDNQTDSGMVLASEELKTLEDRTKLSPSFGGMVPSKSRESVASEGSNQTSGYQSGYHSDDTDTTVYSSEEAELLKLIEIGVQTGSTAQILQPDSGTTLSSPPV
Experimental: Binding of ^125I-VEGF to confluent monolayers of endothelial cells expressing KDR was performed as described in Methods, section (x), in the presence of increasing concentrations of P1 and of unlabeled VEGF; and
x) Binding of ^125I-VEGF to cells. Confluent cultures of bovine aortic endothelial cells transfected with the VEGF receptor KDR were tested for binding of radiolabeled ^125I-VEGF as described in method (iv) above for the FGFR-1 expressing cells.

Relative potency in FGF-9/FGFR-3 soluble receptor assay, in words (FGFR-3) | SMILES | Effect on PLC-γ activation (PLC-γ) | pIC50 [1] | Inhibition of 125I-VEGF binding to KDR/flk-1 expressing cells, in words (VEGF receptor KDR)
more potent | C[n+]1ccc(-c2c3nc(c(-c4cc[n+](C)cc4)c4ccc([nH]4)c(-c4c(F)c(F)c(F)c(F)c4F)c4nc(c(-c5cc[n+](C)cc5)c5ccc2[nH]5)C=C4)C=C3)cc1.[I-].[I-].[I-] [Compound P16, 5-Pentafluorophenyl-10,15,20-tris(N-methyl-4-pyridylium)-21H,23H-porphine triiodide] | clear reduction in the activation |  | 
 | C[n+]1ccc(-c2c3nc(c(-c4cc[n+](C)cc4)c4ccc([nH]4)c(-c4cc[n+](C)cc4)c4nc(c(-c5cc[n+](C)cc5)c5ccc2[nH]5)C=C4)C=C3)cc1 [Compound P1, 5,10,15,20-Tetrakis(N-methyl-4-pyridylium)-21H,23H-porphine tetra-p-tosylate] |  | ~7.40 | efficiently inhibits
